From paper PMC12645137 (Current Neuropharmacology, 2025) come the findings set out here.

Some results are limits rather than exact numbers.

For one series, the system named is mice. Briefly: Acute toxicity study. The format is in vivo, albino mice. The note with it: i.p., doses 25 to 1000 mg/kg. Here is the method:
In our study, experimental animals (albino mice male/female weighing 18-32 gm) were obtained from the National Institute of Health (NIH), Islamabad, Pakistan. These animals were provided adequate food, water, and light (ad libitum). Appropriate conditions were maintained as per laboratory specifications, including a temperature of 22°C a dark and light cycle of 12 hours each. As per the Animals Scientific Procedure Act 1986, UK, the in-vivo studies were performed on experimental animals from 9:00 am to 4:00 pm. The departmental committee of research ethics of the Pharmacy Department, University of Malakand, approved the study protocol via reference no DREC/20210622/50.
Acute toxicity was carried out for the safety profile assessment of our test compounds. For this purpose, the mice were grouped into six different groups (n = 6). The test compound was given to each mouse at different doses (25 to 1000 mg/kg) via the intraperitoneal (i.p) route. Changes in behaviour such as convulsions, hyperactivity, writhing, sedation, righting reflex, aggressiveness, grooming, ataxia, motor activity (increased or decreased), respiratory arrest, and mortality were observed after the administration of sample solution for the first two hours and then again for 24 hours.

In series [1] the test system is scopolamine-induced amnesic mice. The series can be described thus: Y-Maze test in scopolamine-induced amnesic animals. The class given is in vivo, albino mice. The note with it: scopolamine 1 mg/kg amnesic mice, i.p., AN-1 10 mg/kg, progesterone 10 mg/kg, galantamine 8 mg/kg, disease group 22.27%. Here is the method:
The mice were divided into the following five groups, and each group had six animals. The standard drug and test samples were carefully administered to the mice via the intraperitoneal route.
Group IV (Progesterone treated group) = Animals treated with 10 mg/kg progesterone and scopolamine 1 mg/kg.
Group V (Test compound group) = Animals received 10 mg/kg progesterone derivative (AN-1) and 1 mg/kg scopolamine.
To determine the effect of synthesized compounds on short-term learning and memory of experimental mice, a Y-Maze test was used. The Y-Maze apparatus consists of three arms that are fixed at 120° angle from each other and have 30 cm length, 20 cm height, and 8 cm width dimensions. After 30 minutes of giving test compounds intraperitoneally, the mouse was positioned at the arm end in such a way that it faced away from the midpoint of the apparatus and was permitted to search the apparatus for five minutes freely. The arm entry sequence and number by each mouse were recorded for 5 minutes using a digital camera. Alternation is defined as the successive entry into 3 dissimilar arms by a mouse (i.e., CBA, BCA, ABC). When the back paws of a mouse were found inside an arm wholly, the arm entry was considered completed. Seventy percent v/v ethanol was used for cleaning the apparatus and to avoid smell cues. The spontaneous alternation performance (SAP) percentage was calculated using the following formula [37]:
% alternation = [(alternations number) / (total arm entries number – 2)] × 100

Turning to `COc1ccc(C/N=C(/C)[C@H]2CC[C@H]3[C@@H]4CCC5=CC(=O)CC[C@]5(C)[C@H]4CC[C@]23C)cc1` [AN1, (8S,9S,10R,13S,14S)-17-((Z)-1-((4-methoxybenzyl)imino)ethyl)-10,13-dimethyl-1,2,6,7,8,9,10,11,12,13,14,15,16,17-tetradecahydro-3H-cyc-lopenta[a]phenanthren-3-one], the “toxic dose (mortality observed)” value with mice is at least 1000 mg/kg. Further, in the series on mice (observed 2 h and 24 h), the “dose safe, without toxic effects, mortality or unusual behavioral response” value is listed as at most 500 mg/kg. In addition, the results for the spontaneous alternation in series [1] and in series [1] (listed as AN-1) were 42.72 ± 9.41% and 42.72%, respectively.
